Laboratory results taken from patent publication US20090221642A1, “MUSCARINIC RECEPTOR AGONISTS, COMPOSITIONS, METHODS OF TREATMENT THEREOF, AND PROCESSES FOR PREPARATION THEREOF-176” (AstraZeneca AB, priority 2008, published 2009).
pEC50: −log10 of the molar value. Where two headings read alike, the source gives them in different places.

Columns and labels:
Assay type in all cases: cell-based
[1] = target: T1, hM1 (human Muscarinic receptor subtype 1) (Homo sapiens, UniProt P11229); test: Human M1 calcium mobilization FLIPR assay; details: hM1 expressed in CHO cells, intracellular Ca2+ release; for pEC50: read-out: hM1 EC50
T1 construct: expressed in transfected cells; host or cells: CHO cells (Chinese hamster ovary cells, ATCC)
T1 sequence (P11229 1-460): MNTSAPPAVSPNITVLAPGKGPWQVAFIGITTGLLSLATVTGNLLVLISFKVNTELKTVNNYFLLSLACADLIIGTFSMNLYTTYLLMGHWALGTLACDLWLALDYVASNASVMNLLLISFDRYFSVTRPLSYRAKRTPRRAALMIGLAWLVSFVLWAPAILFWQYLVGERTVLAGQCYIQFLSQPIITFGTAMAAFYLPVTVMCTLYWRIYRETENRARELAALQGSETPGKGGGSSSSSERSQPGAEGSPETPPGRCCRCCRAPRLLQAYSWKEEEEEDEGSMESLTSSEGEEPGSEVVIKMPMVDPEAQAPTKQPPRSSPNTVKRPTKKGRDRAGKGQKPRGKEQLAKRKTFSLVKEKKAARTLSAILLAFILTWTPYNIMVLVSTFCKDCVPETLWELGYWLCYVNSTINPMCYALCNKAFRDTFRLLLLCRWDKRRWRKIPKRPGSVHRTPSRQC
In short: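 CHO cells expressing the receptor, dye-loaded at 37°C for 60 min, read on FLIPR at 510-570 nm. Agonism taken from compound-induced Ca2+ rise (max RFU for M1); M3/M5 inhibition measured against 2 nM acetylcholine using max minus min RFU. 10-point threefold dilutions, sigmoidal fits.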

[2] = target: T2, hM3 (human Muscarinic receptor subtype 3) (Homo sapiens, UniProt P20309); test: Human M3 calcium mobilization FLIPR assay; details: hM3 expressed in CHO cells, intracellular Ca2+ release; for pEC50: read-out: hM3 EC50
T2 construct: expressed in transfected cells; host or cells: CHO cells (Chinese hamster ovary cells, ATCC)
Experimental: (§1) Human M1, rat M1, human M3 and human M5 Calcium Mobilization FLIPR™ Assay
(§2) The compound activity in the present invention (EC50 or IC50) is measured using a 384 plate-based imaging assay that monitors drug induced intracellular Ca^2+ release in whole cells. Activation of hM1 (human Muscarinic receptor subtype 1, gene bank access NM_000738), rM1 (rat Muscarinic receptor subtype 1, gene bank access NM_080773), hM3 (human Muscarinic receptor subtype 3, gene bank access NM_000740NM_000740) and hM5 (human Muscarinic receptor subtype 5, gene bank access NM_0121258), receptors expressed in CHO cells (Chinese hamster ovary cells, ATCC) is quantified in a Molecular Devices FLIPR II™ instrument as an increase in fluorescent signal. Inhibition of hM3 and hM5 by compounds is determined by the decrease in fluorescent signal in response to 2 nM acetylcholine activation.
(§3) Prior to experiment, the cell culture medium is removed from the plates by inversion. […] Plates are incubated at 37° C. for 60 minutes prior to start the experiment. The incubation is terminated by washing the cells four times in assay buffer, leaving a residual 25 μl buffer per well. Cell plates are then transferred to the FLIPR, ready for compound additions.
(§4) The day of experiment, acetylcholine and compounds are diluted in assay buffer in three-fold concentration range (10 points serial dilution) for addition by FLIPR instrument. For all calcium assays, a baseline reading is taken for 10 seconds followed by the addition of 12.5 μl of compounds, resulting in a total well volume of 37.5 μl. Data is collected every second for 60 pictures and then every 6 seconds for 20 pictures prior to the addition of agonist. For hM3 and hM5, before agonist addition, a second baseline reading is taken for 10 seconds followed by the addition of 12.5 μl of agonist or buffer, producing a final volume of 50 μl. After agonist stimulation, the FLIPR continues to collect data every second for 60 pictures and then every 6 seconds for 20 pictures. The fluorescence emission is read using filter 1 (emission 510-570 nm) by the FLIPR on board CCD camera.
(§5) Calcium mobilization output data are calculated as the maximal relative fluorescence unit (RFU) minus the minimal value for both compound and agonist reading frame (except for hM1 and rM1 using only the maximal RFU). Data are analyzed using sigmoidal fits of a non-linear curve-fitting program (XLfit version 4.2.2 Excel add-in version 4.2.2 build 18 math 1Q version 2.1.2 build 18). All pEC50 and plC50 values are reported as arithmetic means ±standard error of mean of ‘n’ independent experiments.

[3] = target: T3, hM5 (human Muscarinic receptor subtype 5) (Homo sapiens, UniProt P08912); test: Human M5 calcium mobilization FLIPR assay; details: hM5 expressed in CHO cells, intracellular Ca2+ release; for pEC50: read-out: hM5 EC50
T3 construct: expressed in transfected cells; host or cells: CHO cells (Chinese hamster ovary cells, ATCC)
T3 sequence (P08912 1-532): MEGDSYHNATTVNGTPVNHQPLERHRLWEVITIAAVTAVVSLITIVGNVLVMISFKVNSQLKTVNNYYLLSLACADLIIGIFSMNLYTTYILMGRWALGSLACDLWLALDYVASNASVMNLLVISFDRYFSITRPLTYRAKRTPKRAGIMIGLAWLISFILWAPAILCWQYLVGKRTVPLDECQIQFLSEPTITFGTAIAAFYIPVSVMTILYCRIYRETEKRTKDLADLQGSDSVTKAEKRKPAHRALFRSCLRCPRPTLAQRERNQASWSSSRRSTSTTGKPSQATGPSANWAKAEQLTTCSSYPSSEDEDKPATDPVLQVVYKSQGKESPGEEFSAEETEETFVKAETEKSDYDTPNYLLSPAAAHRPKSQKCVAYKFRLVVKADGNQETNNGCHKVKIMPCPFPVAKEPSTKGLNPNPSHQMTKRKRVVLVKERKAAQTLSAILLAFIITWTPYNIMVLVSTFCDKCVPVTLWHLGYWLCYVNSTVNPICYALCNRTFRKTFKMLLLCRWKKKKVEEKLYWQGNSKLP
Experimental: as §1, §2, §3, §4, §5

T2 sequence (P20309 whole entry): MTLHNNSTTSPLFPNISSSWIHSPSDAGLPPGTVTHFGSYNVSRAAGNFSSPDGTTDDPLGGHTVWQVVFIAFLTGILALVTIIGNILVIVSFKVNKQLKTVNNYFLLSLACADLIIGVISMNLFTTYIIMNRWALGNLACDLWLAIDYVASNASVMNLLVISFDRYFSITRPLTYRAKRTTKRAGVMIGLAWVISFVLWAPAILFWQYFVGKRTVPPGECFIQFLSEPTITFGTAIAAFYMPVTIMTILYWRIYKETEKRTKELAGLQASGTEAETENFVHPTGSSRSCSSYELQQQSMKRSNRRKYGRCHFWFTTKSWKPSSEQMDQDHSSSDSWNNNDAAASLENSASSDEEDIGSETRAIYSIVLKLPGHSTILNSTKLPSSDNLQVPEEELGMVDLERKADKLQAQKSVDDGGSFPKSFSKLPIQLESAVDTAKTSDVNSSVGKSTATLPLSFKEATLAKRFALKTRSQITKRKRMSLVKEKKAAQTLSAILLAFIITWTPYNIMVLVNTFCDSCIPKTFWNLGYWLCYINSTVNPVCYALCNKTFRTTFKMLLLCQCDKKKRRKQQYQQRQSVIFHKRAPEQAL

Compound | EC50 ([1]; hM1 EC50 (nM)) | EC50 ([2]; hM3 EC50 (nM)) | EC50 ([3]; hM5 EC50 (nM)) | pEC50 [1] | pEC50 [2] | pEC50 [3]
COC(=O)N1CCC(C)(N2CCC(N3C(=O)Cc4cc(F)c(C)cc43)CC2)C1 (single isomer, unassigned) [Example 83, methyl 3-(4-(5-fluoro-6-methyl-2-oxoindolin-1-yl)piperidin-1-yl)-3-methylpyrrolidine-1-carboxylate] | 26.1 nM | > 18400 nM | 3560 nM |  |  | 
CCOC(=O)N1CCC(C)(N2CCC(n3c(=O)[nH]c4ccccc43)CC2)C1 (stereo not drawn) [Example 1, ethyl 3-methyl-3-(4-(2-oxo-2,3-dihydro-1H-benzo[d]imidazol-1-yl)piperidin-1-yl)pyrrolidine-1-carboxylate] |  |  |  | 8.38 | 5.85 | 6.87
CCNC(=O)N1CCC(C)(N2CCC(n3c(=O)[nH]c4ccccc43)CC2)C1 (stereo not drawn) [Example 5, N-ethyl-3-methyl-3-(4-(2-oxo-2,3-dihydro-1H-benzo[d]imidazol-1-yl)piperidin-1-yl)pyrrolidine-1-carboxamide] |  |  |  | 7.36 | < 4.40 | < 5.53
CC1(N2CCC(n3c(=O)[nH]c4cc(F)ccc43)CC2)CCN(C(=O)OCCF)C1 (stereo not drawn) [Example 10, 2-fluoroethyl 3-(4-(5-fluoro-2-oxo-2,3-dihydro-1H-benzo[d]imidazol-1-yl)piperidin-1-yl)-3-methylpyrrolidine-1-carboxylate] |  |  |  | 7.58 | < 4.40 | 6.27
